How the values were obtained:
L1210/0 leukemia cells = assay: In vivo anti-tumor activity, L1210 (L1210/0), multiple i.p. doses; parameters: species or system BDF1 mice; conditions: for LTS: survivors/treated 50 days after treatment; for Long Term Survivors: days 1, 5 and 9, at maximal effective dose, alive 60 days after tumor inoculation; for Maximal Effective Dose: i.p. on days 1, 5 and 9
Procedure, shortened: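 BDF1 mice given 10^6 L1210 cells i.p., then i.p. complex starting about 24 h later (day 1), as single dose or on days 1, 5 and 9; six mice per dose. Activity expressed as %T/C of survival time versus untreated controls; long-term survivors alive at 60 days.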

B16 cells = assay: Melanotic melanoma test, i.p. inoculated B16 melanoma; type: in vivo, BDF1 mice; conditions: for Maximal Effective Dose: B16, i.p. days 1, 5 and 9; for % T/C / Long Term Survivors: B16, i.p. days 1, 5 and 9, at maximal effective dose; for Long Term Survivors: 60 days
Description: The animals used were BDF1 mice, all of the same sex, weighing a minimum of 18 g. and all within a 4 g. weight range. There were 6 animals per test group. […] The test compounds were administered intraperitoneally on days 1, 5 and 9 at various doses. The animals were weighed and survivors were recorded on a regular basis for 60 days. The median survival time and the ratio of survival time for treated (T)/control (C) animals were calculated. […] The criterion for efficacy is T/C×100≥125%.

[1] = Acute lethality, single intraperitoneal injection (Table XIII); type: in vivo
[2] = system: L1210 leukemia cells (L1210/PDD); assay: In vitro cytotoxicity / cross-resistance, L1210/PDD (L1210/DDP) cells resistant to cisdiamminedichloroplatinum(II); type: cell-based; conditions: L1210/DDP, Tables VII and VIII; 5760 min
Description: Four ml of cell suspension were added to culture tubes and the appropriate concentration (0.01, 0.1, 1 or 10 μg/ml final drug concentration) was added. After 96 hours the cell concentration of control and experimental cultures were calculated with the aid of a Coulter Counter® Model ZBf and the percent inhibition calculated.

[3] = system: Wild type L1210 leukemic cells; assay: In vitro cytotoxicity, wild type L1210 leukemic cells (L1210/0); type: cell-based; conditions: for ID50: L1210, 72 hours incubation; for ID50 L1210/0: L1210/0, protocol of Example 14, Tables VII and VIII, 4320 min
Procedure, shortened: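 Cells at 10^5 cells/ml were exposed to drug at 0.01, 0.1, 1 or 10 μg/ml final. Cell counts were taken by Coulter counter after 72 h […]. Percent growth inhibition was calculated versus control cultures.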

L1210 cells = assay: In vivo anti-tumor activity, L1210, single i.p. injection; parameters: species or system BDF1 mice; conditions: for Maximal Effective Dose: single i.p. injection; for % T/C: single i.p.
Description: About 24 hours after inoculation of the cells, the mice were injected intraperitoneally with varying dosages of complexes of the present invention. […] Long term survival signifies that animals were alive 60 days after inoculation with L1210 cells.

[4] = BUN (RUN [sic]) with the acute lethality data (Table XIII); type: in vivo; conditions: mean + 1 S.D.
[5] = Tables X and XI, i.p. on days 1, 5 and 9, at maximal effective dose
[6] = Table IX, at maximal effective dose

| SMILES | Long Term Survivors (L1210/0 leukemia cells; Tables X and XI) | Maximal Effective Dose (L1210/0 leukemia cells; Tables X and XI) | % T/C (L1210/0 leukemia cells; [5]) | Maximal Effective Dose (B16 cells) | % T/C (B16 cells) | Long Term Survivors (B16 cells) | LD10 [1] | LD50 [1] | LD90 [1] | ID50 L1210/DDP [2] | ID50 [3] | ID50 L1210/0 [3] | Maximal Effective Dose (L1210 cells; Table IX) | % T/C (L1210 cells; [6]) | RUN [4] | also measured |
| --- | --- | --- | --- | --- | --- | --- | --- | --- | --- | --- | --- | --- | --- | --- | --- | --- |
| NC1CCCCC1N.O=C([O-])CN(CC(=O)[O-])Cc1ccccc1.[Pt+2] [Compound 38, N--Benzyliminodiacetato(DACH)Pt(II)] | 2/6 | 12.5 mg/kg | 397% | 12.5 mg/kg | 207% | 1/6 | 81 mg/kg | 140 mg/kg | 210 mg/kg | 0.8 µg/mL | 2.3 µg/mL | 1.0 µg/mL | 25 mg/kg | 170% | 27 ± 3 mg/100 ml | % T/C (L1210/0 leukemia cells; 6.25 mg/kg i.p., days 1, 5, 9, 30 day observation period): 277%; % T/C (L1210/0 leukemia cells; 12.5 mg/kg i.p., days 1, 5, 9, 30 day observation period): 287%; LTS (L1210/0 leukemia cells; 12.5 mg/kg, days 1, 5, 9): 1/6; % T/C (L1210/0 leukemia cells; 25 mg/kg i.p., days 1, 5, 9, 30 day observation period): 240%; LTS (L1210/0 leukemia cells; 25 mg/kg, days 1, 5, 9): 2/6; % T/C (L1210 cells; 12.5 mg/kg): 123%; % T/C (L1210 cells; 25 mg/kg): 170%; % T/C (L1210 cells; 50 mg/kg): 158% |
| NC1CCCCC1N.O.O.O=C([O-])CN(CCO)CC(=O)[O-].[Pt+2] [Compound 39, N--(2-Hydroxyethyl)-iminodiacetato(DACH)Pt(II).2H2 O] | 4/6 | 25 mg/kg | 450% | 25 mg/kg | 196% | 2/6 | 63 mg/kg | 150 mg/kg | 301 mg/kg | 0.9 µg/mL | 3.0 µg/mL | 0.7 µg/mL | 25 mg/kg | 180% | 18 ± 2 mg/100 ml | – |
